# Patent US9458140B2, “Furanone compounds as kinase inhibitors” (Eternity Bioscience Inc., priority 2013, dated 2016)
# Experiments:
# BRAF^V600E = BRAF^V600E (Homo sapiens (Human), UniProt P15056, V600E); test: BRAF^V600E enzymatic activity assay (LanthaScreen kinase assay); assay type: biochemical; conditions: LanthaScreen TR-FRET, ATP 2 μM, 60 minutes, room temperature; read-out: BRAF^V600E Lantha IC50
# Description: BRAF^V600E enzymatic activity assay: The BRAF^V600E enzymatic assay was performed using a LanthaScreen kinase assay kit purchased from Life Technologies (Grand Island, N.Y.). The assay was conducted according to the procedure provided in the assay kit. […] The final reaction volume for each reaction was 10 μl. The reaction was stopped by addition of 10 μl of TR-FRET dilution buffer kinase supplemented with kinase quench buffer (10 mM final) and Tb-anti-pMAP2K1 (2 nM final). […] IC50 value was calculated using appropriate programs in GraphPad Prism by plotting the logarithm of the concentration versus percent inhibition.
# A375 cells = test: Cell proliferation assay (CellTiter-Glo), A375 cell growth; assay type: cell-based; conditions: 3-day treatment
# Description: Cell proliferation assay: A375, Colo-205, Calu-6, and SW-480 cells were purchased from American Type Culture Collection (USA). All cells were cultured in the recommended medium and serum concentration. Cells were maintained at 37° C. in a humidified atmosphere with 5% CO2. For cell proliferation assay, cells were seeded in 96-well pates at a density of 1,000 to 5,000 cells per well and cultured overnight at 37° C. in a medium supplemented with 5-10% FBS. On the next day, the test articles at various concentrations or vehicle control (1% DMSO) were added into cell culture. After 3-day treatment, the growth of cells was assayed by the CellTiter-Glo® Luminestceaent Cell Viability Assay (Promega). IC50 value was calculated using GraphPad Prism by plotting the logarithm of the concentration versus percent inhibition of cell growth.
# Sequence of BRAF^V600E (P15056 whole entry V600E): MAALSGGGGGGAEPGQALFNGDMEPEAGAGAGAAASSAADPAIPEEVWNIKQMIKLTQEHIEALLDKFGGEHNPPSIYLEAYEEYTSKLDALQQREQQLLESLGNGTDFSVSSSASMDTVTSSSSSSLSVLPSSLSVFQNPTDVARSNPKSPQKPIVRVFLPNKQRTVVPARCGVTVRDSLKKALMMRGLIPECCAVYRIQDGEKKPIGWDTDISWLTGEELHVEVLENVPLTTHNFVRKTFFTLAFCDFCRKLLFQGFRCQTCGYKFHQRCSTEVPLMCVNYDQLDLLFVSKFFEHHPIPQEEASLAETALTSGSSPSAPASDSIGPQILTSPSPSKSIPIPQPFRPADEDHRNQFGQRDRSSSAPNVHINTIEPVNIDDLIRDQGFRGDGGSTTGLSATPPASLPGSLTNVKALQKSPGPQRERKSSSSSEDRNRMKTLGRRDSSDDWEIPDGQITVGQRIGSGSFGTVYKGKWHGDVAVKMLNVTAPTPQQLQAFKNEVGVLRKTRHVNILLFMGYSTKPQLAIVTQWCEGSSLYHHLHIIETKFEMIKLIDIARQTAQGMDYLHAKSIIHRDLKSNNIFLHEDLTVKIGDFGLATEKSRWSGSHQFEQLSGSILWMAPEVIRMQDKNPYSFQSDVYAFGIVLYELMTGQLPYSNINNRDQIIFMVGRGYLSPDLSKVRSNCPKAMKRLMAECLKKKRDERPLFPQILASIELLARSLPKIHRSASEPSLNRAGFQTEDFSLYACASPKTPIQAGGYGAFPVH
Structure (SMILES),IC50 (BRAF^V600E) [nM],"IC50 (A375 cells; Homo sapiens, A-375, 72 h) [nM]",IC50 (A375 cells) [nM]
COCCNc1nccc(C2=C(c3cc(Cl)cc(NS(=O)(=O)c4cc(F)ccc4F)c3F)C(=O)C(C)(C)O2)n1 [Example 26],50,260,–
CCNc1nccc(C2=C(c3cc(Cl)cc(NS(=O)(=O)c4cc(F)ccc4F)c3F)C(=O)C(C)(C)O2)n1 [Example 27],2.8,320,–
C[C@H](O)CNc1nccc(C2=C(c3cc(Cl)cc(NS(=O)(=O)c4cc(F)ccc4F)c3F)C(=O)C(C)(C)O2)n1 [Example 24],24,410,–
CC1(C)OC(c2ccnc(NCCC#N)n2)=C(c2cc(Cl)cc(NS(=O)(=O)c3c(F)cccc3F)c2F)C1=O [Example 21],2.5,200,–
Nc1nccc(C2=C(c3cc(Cl)cc(NS(=O)(=O)c4cc(F)ccc4F)c3F)C(=O)C3(CCCC3)O2)n1 [Example 28],2.6,–,11
CC(C)CC1(C)OC(c2ccnc(NC[C@@H]3CCCN3)n2)=C(c2cccc(NS(=O)(=O)c3c(F)cccc3F)c2F)C1=O (stereo partly drawn) [Example 9],2000,–,–
CC(C)CC1(C)OC(c2ccnc(NCCC#N)n2)=C(c2cc(Cl)cc(NS(=O)(=O)c3c(F)cccc3F)c2F)C1=O (stereo not drawn) [Example 20],29,160,–
CC1(C)OC(c2ccnc(NCCO)n2)=C(c2cc(Cl)cc(NS(=O)(=O)c3cc(F)ccc3F)c2F)C1=O [Example 25],11,160,–
CC1(C)OC(c2ccnc(NCCC#N)n2)=C(c2cccc(NS(=O)(=O)c3c(F)cccc3F)c2F)C1=O [Example 3],13,470,–
CC1(C)OC(c2ccnc(N)n2)=C(c2cc(Cl)cc(NS(=O)(=O)c3ccccc3F)c2F)C1=O [Example 15],2.5,110,–
CC1(C)OC(c2ccnc(NCCC#N)n2)=C(c2cc(Cl)cc(NS(=O)(=O)c3cc(F)ccc3F)c2F)C1=O [Example 23],13,51,–
Nc1nccc(C2=C(c3cc(Cl)cc(NS(=O)(=O)c4c(F)cccc4F)c3F)C(=O)C3(CCCC3)O2)n1 [Example 29],1.3,–,18
CC(C)CC1(C)OC(c2ccnc(NCC3CCCO3)n2)=C(c2cccc(NS(=O)(=O)c3c(F)cccc3F)c2F)C1=O (stereo not drawn) [Example 10],750,–,–
COC(=O)N[C@@H](C)CNc1nccc(C2=C(c3cccc(NS(=O)(=O)c4c(F)cccc4F)c3F)C(=O)C(C)(CC(C)C)O2)n1 (stereo partly drawn) [Example 7],27,870,–
COC(=O)N[C@@H](C)CNc1nccc(C2=C(c3cc(Cl)cc(NS(=O)(=O)c4cc(F)ccc4F)c3F)C(=O)C(C)(C)O2)n1 [Example 22],50,180,–
CC1(C)OC(c2ccnc(N)n2)=C(c2cc(Cl)cc(NS(=O)(=O)c3ccc(F)cc3F)c2F)C1=O [Example 13],–,350,–
CCCS(=O)(=O)Nc1cc(Cl)cc(C2=C(c3ccnc(N)n3)OC(C)(CC(C)C)C2=O)c1F (stereo not drawn) [Example 16],70,250,–
CC(C)CC1(C)OC(c2ccnc(NCCC#N)n2)=C(c2cccc(NS(=O)(=O)c3c(F)cccc3F)c2F)C1=O (stereo not drawn) [Example 6],9.6,12000,–
Nc1nccc(C2=C(c3cc(Cl)cc(NS(=O)(=O)c4c(F)cccc4F)c3Cl)C(=O)C3(CCCC3)O2)n1 [Example 18],2.4,7,–
CC(C)CC1(C)OC(c2ccnc(N)n2)=C(c2cc(Cl)cc(NS(=O)(=O)c3c(F)cccc3F)c2F)C1=O (stereo not drawn) [Example 19],27,41,–
CC1(C)OC(c2ccnc(N)n2)=C(c2cc(Cl)cc(NS(=O)(=O)c3cccc(F)c3)c2F)C1=O [Example 14],1.2,120,–
Nc1nccc(C2=C(c3cccc(NS(=O)(=O)c4c(F)cccc4F)c3F)C(=O)C3(CCCC3)O2)n1 [Example 4],–,510,–
CC1(C)OC(c2ccnc(N)n2)=C(c2cc(Cl)cc(NS(=O)(=O)c3cc(F)ccc3F)c2F)C1=O [Example 12],0.6,1.4,–
CC(C)CC1(C)OC(c2ccnc(NCc3nccs3)n2)=C(c2cccc(NS(=O)(=O)c3c(F)cccc3F)c2F)C1=O (stereo not drawn) [Example 8],260,27000,–
Nc1nccc(C2=C(c3cccc(NS(=O)(=O)c4c(F)cccc4F)c3Cl)C(=O)C3(CCCC3)O2)n1 [Example 17],3.7,150,–
CC1(C)OC(c2ccnc(N)n2)=C(c2cc(Cl)cc(NS(=O)(=O)c3c(F)cccc3F)c2F)C1=O [Example 11],–,18,–
CC(C)CC1(C)OC(c2ccnc(N)n2)=C(c2cccc(NS(=O)(=O)c3c(F)cccc3F)c2F)C1=O (stereo not drawn) [Example 5],92,2300,–
COC(=O)N[C@@H](C)CNc1nccc(C2=C(c3cccc(NS(=O)(=O)c4c(F)cccc4F)c3F)C(=O)C(C)(C)O2)n1 [Example 2],97,630,–
